Data taken from publication PMC8222254, “Self-assembly of an anion receptor with metal-dependent kinase inhibition and potent in vitro anti-cancer properties” (Nature Communications, 2021).
Several values for one entry are separate records, joined by “and”; a condition that tells them apart may be missing. Identical values can stand only once.

Key:
Experiment in all cases: Kinase inhibition screen, cell-free 33P ATP assay at 10 μM
Assay type in all cases: biochemical
[1] = molecular target: T1, 140 purified human kinases (Homo sapiens, UniProt O14920); settings: IKKb; for % Activity inhibition Mean / % Activity inhibition Run 1 / % Activity inhibition Run 2 / % Activity remaining Run 1 / % Activity remaining Run 2: 10 µM
T1 sequence (O14920 1-756): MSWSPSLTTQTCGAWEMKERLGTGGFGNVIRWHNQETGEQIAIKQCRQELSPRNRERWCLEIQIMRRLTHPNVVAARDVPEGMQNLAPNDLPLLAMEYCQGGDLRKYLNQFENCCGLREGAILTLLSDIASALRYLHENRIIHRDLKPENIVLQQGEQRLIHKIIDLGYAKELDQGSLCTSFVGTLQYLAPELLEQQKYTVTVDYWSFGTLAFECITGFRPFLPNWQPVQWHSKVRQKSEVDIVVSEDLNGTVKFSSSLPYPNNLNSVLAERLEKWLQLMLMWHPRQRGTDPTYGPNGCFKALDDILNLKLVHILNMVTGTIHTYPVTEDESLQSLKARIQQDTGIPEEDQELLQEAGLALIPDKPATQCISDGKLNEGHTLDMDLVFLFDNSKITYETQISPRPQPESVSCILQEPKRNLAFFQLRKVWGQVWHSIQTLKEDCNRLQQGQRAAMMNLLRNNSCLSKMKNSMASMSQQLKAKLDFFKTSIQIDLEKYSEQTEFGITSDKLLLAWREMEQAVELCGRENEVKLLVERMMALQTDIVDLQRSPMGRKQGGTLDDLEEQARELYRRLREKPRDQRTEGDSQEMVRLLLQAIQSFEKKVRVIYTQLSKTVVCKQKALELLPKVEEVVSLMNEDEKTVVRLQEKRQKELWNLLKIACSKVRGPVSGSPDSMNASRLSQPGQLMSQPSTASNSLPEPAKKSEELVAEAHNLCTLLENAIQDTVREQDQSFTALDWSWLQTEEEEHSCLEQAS
How it was run: (§1)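 Each complex tested in duplicate at 10 μM; cell-free radiometric assay using ^33P ATP on purified enzymes. Hits mapped by HGNC symbol onto the kinome tree.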

[2] = molecular target: 140 purified human kinases (Homo sapiens, UniProt P27448)
How it was run: as §1

[3] = molecular target: T2, 140 purified human kinases (Homo sapiens, UniProt P43403); settings: for % Activity inhibition Mean / % Activity inhibition Run 1 / % Activity inhibition Run 2 / % Activity remaining Run 1 / % Activity remaining Run 2: 10 µM
T2 sequence (P43403 1-619): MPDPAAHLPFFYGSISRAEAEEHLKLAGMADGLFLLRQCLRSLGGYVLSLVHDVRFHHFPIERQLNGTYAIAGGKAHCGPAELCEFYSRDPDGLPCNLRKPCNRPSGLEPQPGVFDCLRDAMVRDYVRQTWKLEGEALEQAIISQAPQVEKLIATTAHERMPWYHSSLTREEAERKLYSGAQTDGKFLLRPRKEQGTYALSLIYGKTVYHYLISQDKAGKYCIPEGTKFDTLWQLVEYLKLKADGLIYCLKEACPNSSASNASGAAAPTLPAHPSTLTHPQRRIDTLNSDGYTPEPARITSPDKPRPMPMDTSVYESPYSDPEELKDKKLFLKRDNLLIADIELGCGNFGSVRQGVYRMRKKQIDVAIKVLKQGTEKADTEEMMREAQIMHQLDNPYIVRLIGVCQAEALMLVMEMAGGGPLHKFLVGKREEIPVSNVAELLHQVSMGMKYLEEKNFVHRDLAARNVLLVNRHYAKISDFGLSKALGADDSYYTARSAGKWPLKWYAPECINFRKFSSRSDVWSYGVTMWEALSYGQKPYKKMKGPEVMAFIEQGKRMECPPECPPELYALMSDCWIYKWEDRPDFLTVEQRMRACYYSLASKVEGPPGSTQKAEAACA
How it was run: as §1

[4] = molecular target: 140 purified human kinases (Homo sapiens, UniProt P78368)
How it was run: as §1

[5] = molecular target: 140 purified human kinases (Homo sapiens, UniProt P80192)
How it was run: as §1

[6] = molecular target: 140 purified human kinases (Homo sapiens, UniProt Q13131); settings: AMPK (hum); for % Activity inhibition Mean / % Activity inhibition Run 1 / % Activity inhibition Run 2 / % Activity remaining Run 1 / % Activity remaining Run 2: 10 µM
How it was run: as §1

[7] = molecular target: 140 purified human kinases (Homo sapiens, UniProt Q15569)
How it was run: as §1

Chain of 140 purified human kinases (Homo sapiens, UniProt Q13131) (Q13131 whole entry): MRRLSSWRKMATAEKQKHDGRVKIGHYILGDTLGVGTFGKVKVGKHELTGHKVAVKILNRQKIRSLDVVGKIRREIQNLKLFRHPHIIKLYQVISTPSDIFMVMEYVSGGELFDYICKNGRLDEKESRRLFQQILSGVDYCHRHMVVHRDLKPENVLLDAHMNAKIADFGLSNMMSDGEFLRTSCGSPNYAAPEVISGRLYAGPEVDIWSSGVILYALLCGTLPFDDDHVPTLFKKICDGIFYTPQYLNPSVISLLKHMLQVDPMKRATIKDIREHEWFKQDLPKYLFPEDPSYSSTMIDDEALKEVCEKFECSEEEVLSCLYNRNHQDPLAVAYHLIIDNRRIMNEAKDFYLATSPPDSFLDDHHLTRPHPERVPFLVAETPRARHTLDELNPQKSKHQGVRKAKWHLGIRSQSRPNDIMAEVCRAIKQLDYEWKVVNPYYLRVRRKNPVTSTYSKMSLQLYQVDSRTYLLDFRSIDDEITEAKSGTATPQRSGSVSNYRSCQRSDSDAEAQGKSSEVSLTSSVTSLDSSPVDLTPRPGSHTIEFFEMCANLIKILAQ
Chain of 140 purified human kinases (Homo sapiens, UniProt Q15569) (Q15569 whole entry): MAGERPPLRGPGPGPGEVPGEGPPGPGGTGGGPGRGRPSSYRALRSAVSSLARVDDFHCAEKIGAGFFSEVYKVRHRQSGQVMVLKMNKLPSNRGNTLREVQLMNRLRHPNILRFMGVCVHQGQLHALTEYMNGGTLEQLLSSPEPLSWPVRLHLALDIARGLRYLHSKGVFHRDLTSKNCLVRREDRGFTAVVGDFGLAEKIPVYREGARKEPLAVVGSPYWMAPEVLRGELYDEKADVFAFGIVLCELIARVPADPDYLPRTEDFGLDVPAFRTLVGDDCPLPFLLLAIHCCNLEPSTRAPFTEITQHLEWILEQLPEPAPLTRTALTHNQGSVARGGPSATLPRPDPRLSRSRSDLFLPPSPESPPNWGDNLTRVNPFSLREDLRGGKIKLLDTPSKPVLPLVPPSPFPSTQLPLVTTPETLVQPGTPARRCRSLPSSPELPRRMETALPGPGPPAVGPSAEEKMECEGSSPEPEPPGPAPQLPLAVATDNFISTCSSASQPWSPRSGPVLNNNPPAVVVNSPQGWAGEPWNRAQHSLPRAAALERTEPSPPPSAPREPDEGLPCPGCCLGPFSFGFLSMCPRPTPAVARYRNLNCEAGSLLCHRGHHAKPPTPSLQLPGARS
Chain of 140 purified human kinases (Homo sapiens, UniProt P80192) (P80192 whole entry): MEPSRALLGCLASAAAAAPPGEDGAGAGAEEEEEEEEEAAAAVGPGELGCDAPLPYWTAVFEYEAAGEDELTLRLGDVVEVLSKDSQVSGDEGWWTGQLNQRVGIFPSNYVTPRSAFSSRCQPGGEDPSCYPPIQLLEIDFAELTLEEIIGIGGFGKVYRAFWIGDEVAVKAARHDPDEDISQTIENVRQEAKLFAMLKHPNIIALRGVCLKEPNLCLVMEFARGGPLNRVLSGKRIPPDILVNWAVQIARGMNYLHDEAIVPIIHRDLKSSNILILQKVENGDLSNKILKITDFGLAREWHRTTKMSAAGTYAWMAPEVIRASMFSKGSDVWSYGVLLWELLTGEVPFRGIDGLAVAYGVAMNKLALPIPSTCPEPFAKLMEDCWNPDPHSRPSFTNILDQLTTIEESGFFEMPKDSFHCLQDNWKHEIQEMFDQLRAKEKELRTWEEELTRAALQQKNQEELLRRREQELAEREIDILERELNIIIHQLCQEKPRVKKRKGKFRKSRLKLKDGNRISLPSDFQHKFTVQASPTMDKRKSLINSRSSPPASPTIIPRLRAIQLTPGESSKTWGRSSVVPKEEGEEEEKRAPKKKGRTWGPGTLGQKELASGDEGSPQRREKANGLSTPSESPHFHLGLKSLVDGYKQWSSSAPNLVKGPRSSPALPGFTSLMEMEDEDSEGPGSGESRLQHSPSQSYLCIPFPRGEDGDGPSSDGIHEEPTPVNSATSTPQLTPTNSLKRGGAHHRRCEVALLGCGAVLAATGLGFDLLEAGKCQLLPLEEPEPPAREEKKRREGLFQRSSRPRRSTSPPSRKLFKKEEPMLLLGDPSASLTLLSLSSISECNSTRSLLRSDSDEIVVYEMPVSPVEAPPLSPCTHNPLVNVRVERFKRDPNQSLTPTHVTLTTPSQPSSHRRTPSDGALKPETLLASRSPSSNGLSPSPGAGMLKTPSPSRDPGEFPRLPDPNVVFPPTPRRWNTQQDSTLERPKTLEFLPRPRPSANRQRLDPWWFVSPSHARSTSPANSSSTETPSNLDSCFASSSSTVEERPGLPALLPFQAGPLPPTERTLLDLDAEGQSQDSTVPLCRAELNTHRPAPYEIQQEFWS
Chain of 140 purified human kinases (Homo sapiens, UniProt P78368) (P78368 whole entry): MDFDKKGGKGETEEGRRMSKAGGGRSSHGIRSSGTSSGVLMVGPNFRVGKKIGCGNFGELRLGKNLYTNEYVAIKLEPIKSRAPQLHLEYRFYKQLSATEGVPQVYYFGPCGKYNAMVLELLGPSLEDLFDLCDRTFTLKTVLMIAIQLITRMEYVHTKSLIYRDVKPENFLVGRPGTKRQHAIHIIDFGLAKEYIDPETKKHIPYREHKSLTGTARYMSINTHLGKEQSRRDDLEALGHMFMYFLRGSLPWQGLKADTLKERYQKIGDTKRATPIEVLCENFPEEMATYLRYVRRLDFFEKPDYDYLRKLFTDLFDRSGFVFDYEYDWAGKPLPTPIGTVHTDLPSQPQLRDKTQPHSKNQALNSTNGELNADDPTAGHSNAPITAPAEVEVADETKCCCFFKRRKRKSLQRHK
Chain of 140 purified human kinases (Homo sapiens, UniProt P27448) (P27448 whole entry): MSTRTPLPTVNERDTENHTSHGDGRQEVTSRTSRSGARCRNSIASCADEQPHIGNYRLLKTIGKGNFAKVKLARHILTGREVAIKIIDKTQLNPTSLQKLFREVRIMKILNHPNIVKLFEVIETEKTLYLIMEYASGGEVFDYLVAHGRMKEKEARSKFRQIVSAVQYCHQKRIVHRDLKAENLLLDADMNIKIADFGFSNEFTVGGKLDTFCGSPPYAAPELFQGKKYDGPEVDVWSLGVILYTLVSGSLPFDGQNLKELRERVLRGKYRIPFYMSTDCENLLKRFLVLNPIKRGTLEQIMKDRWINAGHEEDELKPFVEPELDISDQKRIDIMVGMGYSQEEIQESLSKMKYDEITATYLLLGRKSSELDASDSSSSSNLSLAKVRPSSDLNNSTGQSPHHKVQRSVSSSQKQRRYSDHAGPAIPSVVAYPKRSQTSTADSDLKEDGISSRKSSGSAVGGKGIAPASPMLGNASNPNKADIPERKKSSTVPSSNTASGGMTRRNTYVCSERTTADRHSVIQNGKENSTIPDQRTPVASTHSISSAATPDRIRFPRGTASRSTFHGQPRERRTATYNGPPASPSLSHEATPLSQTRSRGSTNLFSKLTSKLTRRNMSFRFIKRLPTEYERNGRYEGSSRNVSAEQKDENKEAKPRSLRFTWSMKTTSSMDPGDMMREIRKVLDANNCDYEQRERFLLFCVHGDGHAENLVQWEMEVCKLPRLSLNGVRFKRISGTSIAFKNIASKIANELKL

## [Cu+2].[Cu+2].[Cu+2].c1ccc(-c2csc(NCCN(CCNc3nc(-c4ccccn4)cs3)CCNc3nc(-c4ccccn4)cs3)n2)nc1.c1ccc(-c2csc(NCCN(CCNc3nc(-c4ccccn4)cs3)CCNc3nc(-c4ccccn4)cs3)n2)nc1 [[L2Cu3]6+]
[1]
  % Inhibition Run 1: 92.1%
  % Inhibition Run 2: 92.5%
  % Inhibition, Mean: 92%
  mean % activity: 8%
  % Activity inhibition Mean: 92.3%
  % Activity inhibition Run 1: 92.1%
  % Activity inhibition Run 2: 92.5%
  % Activity remaining Run 1: 7.90%
  % Activity remaining Run 2: 7.50%
[1]; Run 1
  % activity: 7.9%
[1]; Run 2
  % activity: 7.5%
[2]; MARK3
  % Inhibition Run 1: 28.5%
  % Inhibition Run 2: 28.2%
  % Inhibition, Mean: 28%
  mean % activity: 72%
[2]; MARK3, Run 1
  % activity: 71.5%
[2]; MARK3, Run 2
  % activity: 71.8%
[3]; ZAP70
  % Inhibition Run 1: 94%
  % Inhibition Run 2: 89.2%
  % Inhibition, Mean: 92%
  mean % activity: 8%
  % Activity inhibition Mean: 91.6%
  % Activity inhibition Run 1: 94%
  % Activity inhibition Run 2: 89.2%
  % Activity remaining Run 1: 6.00%
  % Activity remaining Run 2: 10.80%
[3]; ZAP70, Run 1
  % activity: 6%
[3]; ZAP70, Run 2
  % activity: 10.8%
[4]; CK1γ2
  % Inhibition Run 1: 23.7%
  % Inhibition Run 2: 10.8%
  % Inhibition, Mean: 17%
  mean % activity: 83%
[4]; CK1γ2, Run 1
  % activity: 76.3%
[4]; CK1γ2, Run 2
  % activity: 89.2%
[5]; MLK1
  % Inhibition Run 1: 83.6%
  % Inhibition Run 2: 85.4%
  % Inhibition, Mean: 85%
  mean % activity: 16%
[5]; MLK1, Run 1
  % activity: 16.4%
[5]; MLK1, Run 2
  % activity: 14.6%
[6]
  % Inhibition Run 1: 97.2%
  % Inhibition Run 2: 98.1%
  % Inhibition, Mean: 98%
  mean % activity: 2.35%
  % Activity inhibition Mean: 97.7%
  % Activity inhibition Run 1: 97.2%
  % Activity inhibition Run 2: 98.1%
  % Activity remaining Run 1: 2.80%
  % Activity remaining Run 2: 1.90%
[6]; Run 1
  % activity: 2.8%
[6]; Run 2
  % activity: 1.9%
[7]; TESK1
  % Inhibition Run 1: 16.1%
  % Inhibition Run 2: -16.2%
  % Inhibition, Mean: -0.05%
  mean % activity: 100%
[7]; TESK1, Run 1
  % activity: 83.9%
[7]; TESK1, Run 2
  % activity: 116.2%

## CC(=O)[O-].CC(=O)[O-].CC(=O)[O-].CC(=O)[O-].CC(=O)[O-].CC(=O)[O-].[Zn+2].[Zn+2].[Zn+2].c1ccc(-c2csc(NCCN(CCNc3nc(-c4ccccn4)cs3)CCNc3nc(-c4ccccn4)cs3)n2)nc1.c1ccc(-c2csc(NCCN(CCNc3nc(-c4ccccn4)cs3)CCNc3nc(-c4ccccn4)cs3)n2)nc1 [[L2Zn3]6+]
[1]
  % Inhibition, Mean: 92%
  % Inhibition, Run 1 / Run 2: 94% and 90%
  mean % activity: 8%
  % Activity inhibition Mean: 92.0%
  % Activity inhibition Run 1: 94%
  % Activity inhibition Run 2: 90%
  % Activity remaining Run 1: 6%
  % Activity remaining Run 2: 10%
[1]; duplicate runs
  % activity: 6% and 10%
[2]; MARK3
  % Inhibition, Mean: 4.7%
  % Inhibition, Run 1 / Run 2: 1.7% and 8%
  mean % activity: 95%
[2]; MARK3, duplicate runs
  % activity: 98% and 92%
[3]; ZAP70
  % Inhibition, Mean: 89%
  % Inhibition, Run 1 / Run 2: 91% and 88%
  mean % activity: 11%
  % Activity inhibition Mean: 89.0%
  % Activity inhibition Run 1: 90%
  % Activity inhibition Run 2: 88%
  % Activity remaining Run 1: 10%
  % Activity remaining Run 2: 12%
[3]; ZAP70, duplicate runs
  % activity: 9.5% and 12%
[4]; CK1γ2
  % Inhibition, Mean: 12%
  mean % activity: 88%
[4]; CK1γ2, duplicate runs
  % activity: 82% and 94%
[5]; MLK1
  % Inhibition, Mean: 11%
  mean % activity: 89%
[5]; MLK1, duplicate runs
  % activity: 83% and 96%
[6]
  % Inhibition, Mean: 93%
  % Inhibition, Run 1 / Run 2: 94% and 92%
  mean % activity: 7%
  % Activity inhibition Mean: 93.0%
  % Activity inhibition Run 1: 94%
  % Activity inhibition Run 2: 92%
  % Activity remaining Run 1: 6%
  % Activity remaining Run 2: 8%
[6]; duplicate runs
  % activity: 6.4% and 8%
[7]; TESK1
  % Inhibition, Mean: 25%
  % Inhibition, Run 1 / Run 2: 34% and 17%
  mean % activity: 75%
[7]; TESK1, duplicate runs
  % activity: 66% and 83%
